Data set [1] concerns the target T1, Steroid 17-alpha-hydroxylase/17,20 lyase (Homo sapiens, UniProt P05093).
T1 sequence (P05093 whole entry): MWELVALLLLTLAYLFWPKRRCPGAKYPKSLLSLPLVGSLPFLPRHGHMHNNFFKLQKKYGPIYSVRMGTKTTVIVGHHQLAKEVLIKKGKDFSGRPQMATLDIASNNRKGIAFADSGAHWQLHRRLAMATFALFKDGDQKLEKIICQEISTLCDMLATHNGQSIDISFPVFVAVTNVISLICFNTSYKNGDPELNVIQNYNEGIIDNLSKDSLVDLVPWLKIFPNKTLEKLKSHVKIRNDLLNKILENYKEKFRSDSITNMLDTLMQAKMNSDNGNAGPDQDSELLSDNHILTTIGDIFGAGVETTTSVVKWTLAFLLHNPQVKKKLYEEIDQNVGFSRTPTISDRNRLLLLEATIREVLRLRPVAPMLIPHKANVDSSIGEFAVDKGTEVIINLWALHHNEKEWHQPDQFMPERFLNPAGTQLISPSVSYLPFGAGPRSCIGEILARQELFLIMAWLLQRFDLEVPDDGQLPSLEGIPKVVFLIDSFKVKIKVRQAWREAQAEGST
Briefly: Inhibition of human CYP17 expressed in Escherichia coli co-expressed with NADPH-P450 reductase at 0.2 uM.

The target of data set [2] is T1, Steroid 17-alpha-hydroxylase/17,20 lyase. Briefly: Inhibition of human CYP17 expressed in Escherichia coli co-expressed with NADPH-P450 reductase at 2 uM.
For data set [3], the target named is T2, CYP3A4 (Homo sapiens, UniProt P08684). Description: Inhibition of recombinant CYP3A4 at 10 uM. It is filed as ADME.
T2 sequence (P08684 whole entry): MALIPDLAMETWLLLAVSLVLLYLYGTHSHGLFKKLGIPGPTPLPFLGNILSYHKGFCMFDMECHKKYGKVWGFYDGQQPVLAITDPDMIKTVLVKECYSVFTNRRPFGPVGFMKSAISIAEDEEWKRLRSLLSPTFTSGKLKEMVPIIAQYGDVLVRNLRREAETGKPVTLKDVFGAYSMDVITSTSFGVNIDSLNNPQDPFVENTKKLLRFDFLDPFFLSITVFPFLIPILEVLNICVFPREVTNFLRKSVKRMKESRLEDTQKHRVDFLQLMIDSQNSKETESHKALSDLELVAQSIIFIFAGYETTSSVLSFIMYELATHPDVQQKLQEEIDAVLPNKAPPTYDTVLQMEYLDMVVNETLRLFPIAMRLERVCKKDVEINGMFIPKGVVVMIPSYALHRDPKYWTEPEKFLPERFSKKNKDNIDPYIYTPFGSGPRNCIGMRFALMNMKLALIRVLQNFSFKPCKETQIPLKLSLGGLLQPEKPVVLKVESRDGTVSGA
For data set [4], the target named is T3, CYP1A2 (Homo sapiens, UniProt P05177).
T3 sequence (P05177 whole entry): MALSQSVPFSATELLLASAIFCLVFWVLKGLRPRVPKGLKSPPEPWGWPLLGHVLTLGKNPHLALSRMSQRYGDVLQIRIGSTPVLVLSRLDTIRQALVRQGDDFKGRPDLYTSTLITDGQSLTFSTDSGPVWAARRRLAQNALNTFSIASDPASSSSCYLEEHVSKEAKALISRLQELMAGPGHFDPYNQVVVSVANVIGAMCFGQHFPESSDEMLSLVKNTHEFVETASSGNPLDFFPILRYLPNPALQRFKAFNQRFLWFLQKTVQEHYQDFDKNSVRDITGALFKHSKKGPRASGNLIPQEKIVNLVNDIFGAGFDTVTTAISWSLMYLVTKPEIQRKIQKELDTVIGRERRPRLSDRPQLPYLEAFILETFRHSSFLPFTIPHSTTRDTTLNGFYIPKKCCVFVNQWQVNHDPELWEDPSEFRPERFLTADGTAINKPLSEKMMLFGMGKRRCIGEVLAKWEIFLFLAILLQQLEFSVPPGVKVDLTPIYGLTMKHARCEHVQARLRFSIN
Briefly: Inhibition of recombinant CYP1A2 at 1 uM. Type of data set: ADME.

The target of data set [5] is T3, CYP1A2. Description: Inhibition of recombinant CYP1A2 at 10 uM. Type of data set: ADME.
Data set [6] concerns the target T4, CYP2C9 (Homo sapiens, UniProt P11712). Description: Inhibition of recombinant CYP2C9 at 1 uM. Type of data set: ADME.
For data set [7], the target named is T4, CYP2C9. Description: Inhibition of recombinant CYP2C9 at 10 uM. It is filed as ADME.
In data set [8] the target is T5, CYP2C19 (Homo sapiens, UniProt P33261). Briefly: Inhibition of recombinant CYP2C19 at 1 uM. It is filed as ADME.
T5 sequence (P33261 whole entry): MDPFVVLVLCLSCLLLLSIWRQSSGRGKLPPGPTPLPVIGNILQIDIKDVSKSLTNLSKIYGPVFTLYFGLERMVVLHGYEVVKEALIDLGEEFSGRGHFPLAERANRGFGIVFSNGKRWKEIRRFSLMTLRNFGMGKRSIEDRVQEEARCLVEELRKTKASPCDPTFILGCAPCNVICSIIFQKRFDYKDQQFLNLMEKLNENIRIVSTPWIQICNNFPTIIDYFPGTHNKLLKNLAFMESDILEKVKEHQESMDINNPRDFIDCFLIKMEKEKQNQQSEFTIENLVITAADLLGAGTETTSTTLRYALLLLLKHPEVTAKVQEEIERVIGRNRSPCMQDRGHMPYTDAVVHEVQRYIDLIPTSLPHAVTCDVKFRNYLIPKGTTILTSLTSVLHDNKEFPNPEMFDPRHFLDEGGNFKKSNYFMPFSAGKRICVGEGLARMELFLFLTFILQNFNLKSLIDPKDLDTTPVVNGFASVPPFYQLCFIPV
Data set [9] has as its target T5, CYP2C19. Description: Inhibition of recombinant CYP2C19 at 10 uM. Type of data set: ADME.
Data set [10] addresses T6, CYP2B6 (Homo sapiens, UniProt P20813).
T6 sequence (P20813 whole entry): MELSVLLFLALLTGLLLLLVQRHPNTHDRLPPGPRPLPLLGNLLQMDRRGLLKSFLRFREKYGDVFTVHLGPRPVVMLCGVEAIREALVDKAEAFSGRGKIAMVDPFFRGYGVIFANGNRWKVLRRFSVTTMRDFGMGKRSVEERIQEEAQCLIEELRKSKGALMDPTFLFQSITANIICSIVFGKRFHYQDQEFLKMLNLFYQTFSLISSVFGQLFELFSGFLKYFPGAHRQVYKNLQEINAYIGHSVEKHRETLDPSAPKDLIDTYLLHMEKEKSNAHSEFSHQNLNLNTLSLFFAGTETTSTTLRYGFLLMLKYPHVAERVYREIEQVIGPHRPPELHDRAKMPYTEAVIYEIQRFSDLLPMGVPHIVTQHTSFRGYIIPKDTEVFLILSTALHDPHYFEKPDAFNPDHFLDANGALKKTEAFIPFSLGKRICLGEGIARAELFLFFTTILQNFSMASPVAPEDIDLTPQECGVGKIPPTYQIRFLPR
Briefly: Inhibition of recombinant CYP2B6 at 1 uM. It is filed as ADME.

The target in data set [11] is T6, CYP2B6. Description: Inhibition of recombinant CYP2B6 at 10 uM. Type of data set: ADME.
Data set [12] has as its target T7, CYP2D6 (Homo sapiens, UniProt P10635). Briefly: Inhibition of recombinant CYP2D6 at 1 uM. Type of data set: ADME.
For data set [13], the target named is T7, CYP2D6. Description: Inhibition of recombinant CYP2D6 at 10 uM. It is filed as ADME.
In data set [14] the test system is Rattus norvegicus. Briefly: Reduction of testosterone level in Wistar rat plasma at 50 mg/kg, po after 1 hr by ELISA relative to pretreatment value. Further details: scale not given: the % may be the effect or the level left. Type of data set: functional.
In data set [15] the test system is Rattus norvegicus. Briefly: Reduction of testosterone level in Wistar rat at 50 mg/kg, po after 4 hrs by ELISA relative to pretreatment value. It is filed as functional. Further details: scale not given: the % may be the effect or the level left.
The test system of data set [16] is Rattus norvegicus. Description: Reduction of testosterone level in Wistar rat plasma at 50 mg/kg, po after 6 hrs by ELISA relative to pretreatment value. Further details: scale not given: the % may be the effect or the level left. Type of data set: functional.
The subject of data set [17] is Rattus norvegicus. Description: Reduction of testosterone level in Wistar rat plasma at 50 mg/kg, po after 8 hrs by ELISA relative to pretreatment value. It is filed as functional. Further details: scale not given: the % may be the effect or the level left.
The nature of data set [18]: Terminal half life in Wistar rat plasma at 50 mg/kg, po. It is filed as ADME, organism-based. Further details: dose 50 mg/kg, route oral.
Data set [19] in a line: Tmax in Wistar rat at 50 mg/kg, po. Type of data set: ADME, organism-based. Further details: dose 50 mg/kg, route oral. As to conditions: in vivo.
A short description of data set [20]: Cmax in Wistar rat at 50 mg/kg, po. Type of data set: ADME, organism-based. Further details: dose 50 mg/kg, route oral. As to conditions: in vivo.
The nature of data set [21]: AUC (0 to infinity) in Wistar rat at 50 mg/kg, po. Type of data set: ADME, organism-based. Further details: time infinity, dose 50 mg/kg, route oral. The note with it: plasma.
A short description of data set [22]: Total body clearance in Wistar rat at 50 mg/kg, po. As to conditions: in vivo. Type of data set: ADME, organism-based. Further details: dose 50 mg/kg, route oral.
Data set [23] has as its target T1, Steroid 17-alpha-hydroxylase/17,20 lyase. Description: Inhibition of human CYP17 expressed in Escherichia coli co-expressed with NADPH-P450 reductase.
The target in data set [24] is T8, Steroid 17-alpha-hydroxylase/17,20 lyase (Rattus norvegicus, UniProt P11715).
T8 sequence (P11715 whole entry): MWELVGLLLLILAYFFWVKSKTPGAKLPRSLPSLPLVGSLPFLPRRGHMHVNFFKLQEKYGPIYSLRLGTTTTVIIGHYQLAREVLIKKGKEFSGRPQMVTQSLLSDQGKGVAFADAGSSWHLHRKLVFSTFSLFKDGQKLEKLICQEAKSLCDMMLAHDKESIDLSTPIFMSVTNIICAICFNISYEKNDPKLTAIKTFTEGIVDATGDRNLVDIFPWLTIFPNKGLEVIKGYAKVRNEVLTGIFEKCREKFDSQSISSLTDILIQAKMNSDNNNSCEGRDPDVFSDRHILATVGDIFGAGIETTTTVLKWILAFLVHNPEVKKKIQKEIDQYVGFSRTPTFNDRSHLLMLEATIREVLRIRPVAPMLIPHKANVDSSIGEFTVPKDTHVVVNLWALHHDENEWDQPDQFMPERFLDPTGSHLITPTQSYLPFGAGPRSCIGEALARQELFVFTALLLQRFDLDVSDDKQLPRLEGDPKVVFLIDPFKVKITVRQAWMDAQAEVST
Briefly: Inhibition of Sprague-Dawley rat testicular CYP17.

For data set [25], the target named is T2, CYP3A4. Briefly: Inhibition of recombinant CYP3A4 at 1 uM. It is filed as ADME.
The test system of data set [26] is Rattus norvegicus. Briefly: Reduction of testosterone level in Wistar rat plasma at 50 mg/kg, po after 2 hrs by ELISA relative to pretreatment value. It is filed as functional. Further details: scale not given: the % may be the effect or the level left.
The test system of data set [27] is Rattus norvegicus. Briefly: Reduction of testosterone level in Wistar rat plasma at 56.02 mg/kg, po after 1 hr by ELISA relative to pretreatment value. Type of data set: functional. Further details: scale not given: the % may be the effect or the level left.
For data set [28], the system named is Rattus norvegicus. Briefly: Reduction of testosterone level in Wistar rat plasma at 56.02 mg/kg, po after 2 hrs by ELISA relative to pretreatment value. It is filed as functional. Further details: scale not given: the % may be the effect or the level left.
In data set [29] the test system is Rattus norvegicus. Briefly: Reduction of testosterone level in Wistar rat plasma at 56.02 mg/kg, po after 4 hrs by ELISA relative to pretreatment value. Type of data set: functional. Further details: scale not given: the % may be the effect or the level left.
Data set [30] concerns Rattus norvegicus. Description: Reduction of testosterone level in Wistar rat plasma at 56.02 mg/kg, po after 6 hrs by ELISA relative to pretreatment value. Type of data set: functional. Further details: scale not given: the % may be the effect or the level left.
In data set [31] the test system is Rattus norvegicus. Briefly: Reduction of testosterone level in Wistar rat plasma at 56.02 mg/kg, po after 8 hrs by ELISA relative to pretreatment value. It is filed as functional. Further details: scale not given: the % may be the effect or the level left.
The target of data set [32] is T1, Steroid 17-alpha-hydroxylase/17,20 lyase. Briefly: Inhibition of human CYP17 expressed in Escherichia coli co-expressed with NADPH-P450 reductase at 1 uM.

T7 sequence (P10635 whole entry): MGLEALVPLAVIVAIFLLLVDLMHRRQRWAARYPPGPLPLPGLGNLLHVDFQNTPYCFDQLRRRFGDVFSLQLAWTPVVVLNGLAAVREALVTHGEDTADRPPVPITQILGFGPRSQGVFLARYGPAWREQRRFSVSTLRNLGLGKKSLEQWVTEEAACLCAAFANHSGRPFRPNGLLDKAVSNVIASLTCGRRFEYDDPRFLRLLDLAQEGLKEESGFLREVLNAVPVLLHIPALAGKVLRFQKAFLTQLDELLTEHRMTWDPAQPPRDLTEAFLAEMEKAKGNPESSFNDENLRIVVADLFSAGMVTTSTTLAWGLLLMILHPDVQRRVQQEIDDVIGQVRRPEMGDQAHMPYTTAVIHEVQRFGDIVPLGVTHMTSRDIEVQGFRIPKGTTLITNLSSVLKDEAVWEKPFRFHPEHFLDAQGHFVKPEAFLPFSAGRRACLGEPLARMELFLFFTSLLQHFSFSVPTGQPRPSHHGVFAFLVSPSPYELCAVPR
T4 sequence (P11712 whole entry): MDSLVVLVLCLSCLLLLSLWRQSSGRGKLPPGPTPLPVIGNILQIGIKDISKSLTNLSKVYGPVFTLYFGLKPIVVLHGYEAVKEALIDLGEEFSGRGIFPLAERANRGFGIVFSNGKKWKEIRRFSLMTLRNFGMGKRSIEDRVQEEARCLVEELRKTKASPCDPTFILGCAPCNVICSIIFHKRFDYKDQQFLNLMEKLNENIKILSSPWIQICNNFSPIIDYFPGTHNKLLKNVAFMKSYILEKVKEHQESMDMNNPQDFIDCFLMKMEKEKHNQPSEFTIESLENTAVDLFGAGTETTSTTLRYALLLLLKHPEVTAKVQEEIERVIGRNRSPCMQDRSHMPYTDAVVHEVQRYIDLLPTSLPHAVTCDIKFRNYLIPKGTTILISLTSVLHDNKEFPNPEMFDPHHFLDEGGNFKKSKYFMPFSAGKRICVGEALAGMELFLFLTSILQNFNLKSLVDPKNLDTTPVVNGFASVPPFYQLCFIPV

In turn, `CC(c1ccc(-c2ccsc2)cc1)n1ccnc1` (stereo not given) displayed an inhibition at 0.2 µM in data set [1] of 21%. This compound also came in with an inhibition at 2 µM in data set [2] of 67%. Besides, the inhibition at 10 µM amounted to 94% in data set [3]; 100% in [5]; 89% in [7]; 99% in data set [9]; 87% in data set [11]; 68% in [13]. Also, the inhibition at 1 µM in data set [4] came out at 97%; in data set [6], 75%; in data set [8], 87%; in [10], 49%; in data set [12], 17%; in [25], 80%. The Activity in data set [14] came out at 30.9%; in [15], 25.9%; in data set [16], 29.7%; in data set [17], 34.1%. In data set [18], this compound gave a half-life of 9.5 h. Also, in [19], the Tmax turned out to be 1 h. In addition, in data set [20], the Cmax came out at 1280 ng/mL. Moreover, the AUC(0-inf) in data set [21] turned out to be 24900 ng·h/mL. Besides, the CL/F in data set [22] is 33.5 mL/min/kg. Moreover, the IC50 in [23] was determined as 953 nM; in data set [24] it was 676 nM.
With `CCC(c1ccc(-c2ccsc2)cc1)n1ccnc1` (stereo not given), 0.2 µM produced 28% inhibition in data set [1]. In data set [2], this compound had an inhibition at 2 µM of 83%. For the same compound, the inhibition at 10 µM in data set [3] worked out at 92%; in [5], 100%; in data set [7], 74%; in data set [9], 100%; in data set [11] it was 87%; in [13] it was 77%. Besides, the inhibition at 1 µM in data set [4] is 98%; in data set [6], 81%; in data set [8], 95%; in [10], 60%; in [12], 24%; in data set [25], 88%. Moreover, the Activity in [14] was 37.6%; in data set [26], 30.5%; in data set [15] it was 26.9%; in [16], 62.6%; in data set [17], 63%. Further, the half-life in data set [18] was 3.8 h. Besides, in data set [19], the Tmax worked out at 1 h. The same compound came in with a Cmax in [20] of 1740 ng/mL. The AUC(0-inf) in data set [21] worked out at 6700 ng·h/mL. In [22], this compound gave a CL/F of 125 mL/min/kg. Also, the IC50 amounted to 373 nM in data set [23] and 562 nM in [24].
On to `CC(=O)O[C@H]1CC[C@@]2(C)C(=CC[C@@H]3[C@@H]2CC[C@]2(C)C(c4cccnc4)=CC[C@@H]32)C1` [ABIRATERONE ACETATE], for which the Activity in data set [27] was 92.5%; in data set [28], 44%; in data set [29], 43.5%; in [30] it was 43.3%; in [31] it was 35.6%.
On to `CC(=O)N1CCN(c2ccc(OCC3COC(Cn4ccnc4)(c4ccc(Cl)cc4Cl)O3)cc2)CC1` (stereo not given) [KETOCONAZOLE], for which the inhibition at 1 µM in [32] came out at 19%; in [10], 11%. Besides, the inhibition at 10 µM in [9] was 79%; in data set [11] it was 57%.

The values above are taken from ChEMBL document CHEMBL1141584, “Synthesis, biological evaluation and molecular modelling studies of methyleneimidazole substituted biaryls as inhibitors of human 17alpha-hydroxylase-17,20-lyase (CYP17). Part I: Heterocyclic modifications of the core structure” (Bioorg Med Chem, 2008).
